Source: patent publication US12391701B2, “Chromene-based compounds, methods and uses thereof” (University of Minho, priority 2019, dated 2025)

How the values were obtained:
786-O cells [1] = assay: BrdU proliferation assay, 786-O; type: cell-based; conditions: 48 hours; IC50 and ½IC50
Method: In an embodiment, the effect of preferred chromene-based compounds on cell proliferation was evaluated. […] Results are presented as mean±SD at least three independent experiments. *p<0.05, **p<0.01, ***p<0.0005, ****p<0.0001 compared to control (0.5% DMSO). The significance of the difference between different groups was determined with Student t test. […] Exceptions are observed for compounds MC409, MC410 and MC368.
In an embodiment, proliferation assay was performed. 786-O cells were plated in 96-well plates at a density of 7000 cells/[…], and allowed to incubate overnight at 37° C. in a 5% CO2 humidified atmosphere. […] After incubation, cells were labelled by addition of 10 μl/well BrdU labelling solution (final concentration: 40 μM BrdU). The cells were then re-incubated for 16 h to allow BrdU to incorporate into the proliferating cell DNA, replacing thymidine. […] The immune complexes were detected by the addition of substrate solution (100 μl/well) and the plate was incubated at room temperature until color development was satisfactory for photometric detection (5-10 min). […] The reaction product was quantified by measuring absorbance at 450 nm (reference wavelength: 690 nm) in microplate reader (Tecan Infinite M200). […] The results of at least three independent experiments (in quadruplicate) were evaluated using GraphPad Prism 5 software.

[2] = tested on: CAM (chicken chorioallantoic membrane) blood vessels; assay: CAM assay, angiogenesis; type: in vivo; conditions: 2× the IC50 value; after 4 days of treatment
Method: In an embodiment, the in vivo capacity of the compounds to inhibit angiogenesis was analysed using the CAM model. To assess the effect on angiogenesis, sterilized 5-mm diameter filter disks were impregnated in culture medium with fixed concentration (2× the IC50 value) of the chromenes MC408 and MC421 or 0.5% DMSO (control group) and were placed onto the vascular area of CAM.
In an embodiment, CAM assay was performed. Fertilized chicken eggs were incubated at 37° C. and at day 3 of development, a window was opened into the eggshell after puncturing the air chamber. The window was sealed with BTK tape and returned to the incubator. On day 9 of development, Hs578t cells (2×10^6 cells) or 786-O cells (3.5×10^6 cells) with Matrigel (10 μL) were placed on CAM, allowing tumor formation and the eggs were tapped and returned to the incubator. At day 14 of development, the tumors were photographed. The treated groups received 20 μL of 2×IC50 concentration of MC408 or MC421 in complete DMEM (for Hs578t cells) or complete RPMI (for 786-O cells) media and the controls received 20 μL of 0.5% DMSO in complete DMEM or RPMI; these were added over the formed tumor. After 72 hours of treatment (day 17 of development), the tumors were photographed again in ovo. Sacrifice of chicken embryos was performed at −80° C. for 10 minutes and the CAM alone was fixed with paraformaldehyde at 4% before being photographed again ex ovo.

786-O cells [3] = assay: Annexin V/PI flow cytometry, 786-O; type: cell-based; conditions: IC50 concentration; 24 h
From the text: (§1) In an embodiment, to understand the mechanisms leading to cell death, cells were studied for the induction of apoptosis by flow cytometry. […] Externalization of phosphatidylserine occurs during the early apoptotic events. While annexin V binds to phosphatidylserine, PI stains only cells that have lost their membrane integrity, an experimental procedure which allows the discrimination between viable cells, early apoptotic cells, late apoptotic/necrotic cells or necrotic cells.
(§2) In an embodiment, MCF-7, Hs578t and 786-O cells were seeded in 6-well culture plates and allowed to adhere over 18-20 hours in a complete DMEM (for MCF-7 and Hs578t cells) and complete RPMI (for 786-O cells) medium to detect apoptosis via flow cytometry analysis. […] Triplicates were performed in each experiment. Floating and adherent cells were collected and combined by centrifugation. Elimination of the supernatant was followed by addition of 1 mL of Binding Buffer. 8 μL FITC annexin V (556419, BD Pharmingen) and 30 μl of PI (50 μg/mL, P1304MP, Invitrogen) were added to the cell pellet. Samples were incubated in the dark for 15 min at room temperature. A further 200 μL of Binding Buffer was added to each sample. PI signal was measured using FACS LSRII flow cytometer (BD Biosciences®) with 488 nm excitation laser. […] The percentage of cells in each phase was analysed using the FlowJo 7.6 (Tree Star®) software. […]

MCF-7 cells = assay: Annexin V/PI flow cytometry, MCF-7; type: cell-based, human; conditions: IC50 concentration; 24 h
From the text: as §1, §2

C57BI/6 mice = assay: Toxicity in C57BI/6 mice, 2nd trial; type: in vivo; conditions: 3 mg/Kg i.p. daily for 7 days
Method: In an embodiment, the effects of compound treatment on C57BI/6 mice—2nd trial was analysed. […] FIG. 16A is a schematic representation of the experiment timeline. 3-month old female and male animals were used (n=6/group/gender) and injected either with MC408 3 mg/Kg or vehicle (saline, Tween80 and methylcellulose) (i.p.) daily for 7 days. In this trial the number of animals per group was increased and the experiment was conceived to collect blood before and after the treatment. […] Data is presented as mean±SE.

Row | Compound | effect on cell proliferation (BrdU incorporation) (786-O cells [1]) | formation of novel blood vessels [2] | pre-existing blood vessels [2] | induction of cell death by apoptosis (annexin V/PI) (786-O cells [3]) | induction of cell death by apoptosis (annexin V/PI) (MCF-7 cells) | body weight (C57BI/6 mice)
1 | COc1cccc2c1Oc1nc(-c3cc(F)cc(F)c3O)[nH]c1C2 [MC410, 2,4-difluoro-6-(5-methoxy-3,9-dihydrochromeno[2,3-d]imidazol-2-yl)phenol] | Exceptions | – | – | – | – | –
2 | COc1cccc2c1Oc1nc(-c3ccc(Br)cc3)[nH]c1C2C1c2cccc(OC)c2Oc2nc(-c3ccc(Br)cc3)[nH]c21 (centres unmarked) [MC421, 2,2′-bis(4-bromophenyl)-5,5′-dimethoxy-1,1,9,9′-tetrahydro-9,9′-bichromeno[2,3-]imidazoles] | – | decreased | disruption | inducing cell death by apoptosis (early apoptosis) | inducing cell death by apoptosis (early apoptosis) | –
3 | COc1cccc2c1Oc1nc(-c3ccc(F)cc3)[nH]c1C2 [MC409, 2-(4-fluorophenyl)-5-methoxy-3,9-dihydrochromeno[2,3-d]imidazoles] | Exceptions | – | – | – | – | –
4 | COc1cccc2c1Oc1nc(-c3ccc(Br)cc3)[nH]c1C2 [MC408, 2-(4-bromophenyl)-5-methoxy-3,9-dihydrochromeno[2,3-d]imidazoles] | – | decreased | disruption | inducing cell death by apoptosis (early apoptosis) | inducing cell death by apoptosis (early apoptosis) | no differences were found
